Experimental data: patent US20170275270A1, “BENZYL SUBSTITUTED INDAZOLES” (Bayer Pharma Aktiengesellschaft, priority 2014, published 2017)
“And” between values parts separate entries of the source, which are not always exact repeats. Identical values can stand only once. Counter-ions that a name gives are not always drawn. Like-named read-outs stand apart in the source and are kept apart here.

Experiments:
Bub1 = Bub1 (Homo sapiens, UniProt O43683); assay: Formation-Assay: phosphorylation status of histone 2A by inhibition of kinase activity of Bub1; type: cell-based; settings: Biological Assay 4.1: H2A Formation IC50, co-treatment with Nocodazole 1 μg/ml, 16 h
Method in brief: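 Cells co-treated 16 h with Nocodazole (1 μg/ml) and compound (3 nM–10 μM), then fixed and immunostained for phospho-H2A, read by infrared imaging (800 nm) normalised to cell stain (700 nm). Nocodazole-only set as 100%, untreated cells as 0%.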

[1] = test system: HeLa human cervical tumor cells; assay: Proliferation assay (HeLa+Paclitaxel); settings: read-out: Biological Assay 3: HeLa + Paclitaxel IC50, 3 nM paclitaxel, crystal violet;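 further: compounds at 0.001-10 µM added 4 h after paclitaxel, 92 h exposure, absorbance normalized to zero-point plate (0%) and untreated cells (100%), IC50 from 4-parameter fit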
Method: Proliferation Assay (HeLa+Paclitaxel):
Cultivated HeLa human cervical tumor cells (DSMZ ACC-57) were plated at a density of 3000 cells/well in a 96-well multititer plate in 200 μL of growth medium supplemented 10% fetal calf serum. After 24 hours, the cells of one plate (zero-point plate) were stained with crystal violet (see below). The medium of the other plates was supplemented with 3 nM of paclitaxel (Sigma-Aldrich) and the cells were incubated at 37° C. After 4 hours the test substances were added in various concentrations (0 μM, as well as in the range of 0.001-10 μM; the final concentration of the solvent dimethyl sulfoxide was adjusted to 0.1%) using a Hewlett-Packard HP D300 Digital Dispenser. The cells were incubated for another 92 hours at 37° C. in the presence of test substances. Cell proliferation was determined by staining the cells with crystal violet: the cells were fixed by adding 20 μL/measuring point of an 11% glutaric aldehyde solution for 15 minutes at room temperature. After three washing cycles of the fixed cells with water, the plates were dried at room temperature. The cells were stained by adding 100 μL/measuring point of a 0.1% crystal violet solution (pH 3.0). After three washing cycles of the stained cells with water, the plates were dried at room temperature. The dye was dissolved by adding 100 μL/measuring point of a 10% acetic acid solution. […] The change of cell number, in percent, was calculated by normalization of the measured values to the absorbtion values of the zero-point plate (=0%) and the absorbtion of the untreated (0 μm) cells (=100%). The IC50 values were determined by means of a 4 parameter fit.

[2] = molecular target: T1, catalytic domain of human Bub1 (amino acids 704-1085) (Homo sapiens, UniProt O43683); assay: Bub1 kinase assay (TR-FRET); type: biochemical
T1 construct: catalytic domain of human Bub1 (amino acids 704-1085); His6 (N); made in house; host or cells: Hi5 insect cells
Method in brief: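 Compounds from 2 mM DMSO stocks, serially diluted 1:3.4, incubated with enzyme at 22° C for 60 min. Stopped with EDTA, then 1 h with streptavidin-XL665, anti-phosphoserine antibody and Eu-labelled anti-mouse IgG. Phosphorylated biotin-peptide read by TR-FRET; IC50 by 4-parameter logistic fit.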

HeLa = assay: Proliferation assay (HeLa cell line);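 further: crystal violet staining of cell number, scaled between a plate stained before dosing (0%) and cells left untreated (100%), compounds tested at 0.001-10 µM, IC50 via 4-parameter fit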
Method: Cultivated tumor cells (cells were ordered from ATCC, except HeLa-MaTu and HeLa-MaTu-ADR, which were ordered from EPO-GmbH, Berlin) were plated at a density of 1000 to 5000 cells/well, depending on the growth rate of the respective cell line, in a 96-well multititer plate in 200 μL of their respective growth medium supplemented 10% fetal calf serum. After 24 hours, the cells of one plate (zero-point plate) were stained with crystal violet (see below), while the medium of the other plates was replaced by fresh culture medium (200 μL), to which the test substances were added in various concentrations (0 μM, as well as in the range of 0.001-10 μM; the final concentration of the solvent dimethyl sulfoxide was 0.5%). The cells were incubated for 4 days in the presence of test substances. Cell proliferation was determined by staining the cells with crystal violet: the cells were fixed by adding 20 μL measuring point of an 11% glutaric aldehyde solution for 15 minutes at room temperature. After three washing cycles of the fixed cells with water, the plates were dried at room temperature. The cells were stained by adding 100 μL/measuring point of a 0.1% crystal violet solution (pH 3.0). After three washing cycles of the stained cells with water, the plates were dried at room temperature. The dye was dissolved by adding 100 μl/measuring point of a 10% acetic acid solution. […] The change of cell number, in percent, was calculated by normalization of the measured values to the absorbtion values of the zero-point plate (=0%) and the absorbtion of the untreated (0 μm) cells (=100%). The IC50 values were determined by means of a 4 parameter fit.

[3] = 10 μM ATP, read-out: Biological Assay 1: Bub1 kinase assay median IC50
[4] = Homo sapiens, 96 h, read-out: Biological Assay 2: Proliferation assay (HeLa cell line) median IC50
[5] = Biological Assay 1: Bub1 kinase assay median IC50, 10 μM ATP

T1 sequence (O43683 704-1085): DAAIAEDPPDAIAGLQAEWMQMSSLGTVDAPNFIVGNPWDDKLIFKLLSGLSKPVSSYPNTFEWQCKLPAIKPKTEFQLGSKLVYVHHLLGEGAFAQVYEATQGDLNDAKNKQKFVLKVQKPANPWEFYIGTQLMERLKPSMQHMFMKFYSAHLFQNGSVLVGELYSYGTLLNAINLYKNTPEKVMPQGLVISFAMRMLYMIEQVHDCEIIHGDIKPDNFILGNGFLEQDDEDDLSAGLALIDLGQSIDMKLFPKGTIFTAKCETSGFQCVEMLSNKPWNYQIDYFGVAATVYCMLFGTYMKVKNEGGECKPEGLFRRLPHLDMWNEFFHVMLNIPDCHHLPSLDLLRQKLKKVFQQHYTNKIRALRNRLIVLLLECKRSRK
Bub1, sequence (O43683 whole entry): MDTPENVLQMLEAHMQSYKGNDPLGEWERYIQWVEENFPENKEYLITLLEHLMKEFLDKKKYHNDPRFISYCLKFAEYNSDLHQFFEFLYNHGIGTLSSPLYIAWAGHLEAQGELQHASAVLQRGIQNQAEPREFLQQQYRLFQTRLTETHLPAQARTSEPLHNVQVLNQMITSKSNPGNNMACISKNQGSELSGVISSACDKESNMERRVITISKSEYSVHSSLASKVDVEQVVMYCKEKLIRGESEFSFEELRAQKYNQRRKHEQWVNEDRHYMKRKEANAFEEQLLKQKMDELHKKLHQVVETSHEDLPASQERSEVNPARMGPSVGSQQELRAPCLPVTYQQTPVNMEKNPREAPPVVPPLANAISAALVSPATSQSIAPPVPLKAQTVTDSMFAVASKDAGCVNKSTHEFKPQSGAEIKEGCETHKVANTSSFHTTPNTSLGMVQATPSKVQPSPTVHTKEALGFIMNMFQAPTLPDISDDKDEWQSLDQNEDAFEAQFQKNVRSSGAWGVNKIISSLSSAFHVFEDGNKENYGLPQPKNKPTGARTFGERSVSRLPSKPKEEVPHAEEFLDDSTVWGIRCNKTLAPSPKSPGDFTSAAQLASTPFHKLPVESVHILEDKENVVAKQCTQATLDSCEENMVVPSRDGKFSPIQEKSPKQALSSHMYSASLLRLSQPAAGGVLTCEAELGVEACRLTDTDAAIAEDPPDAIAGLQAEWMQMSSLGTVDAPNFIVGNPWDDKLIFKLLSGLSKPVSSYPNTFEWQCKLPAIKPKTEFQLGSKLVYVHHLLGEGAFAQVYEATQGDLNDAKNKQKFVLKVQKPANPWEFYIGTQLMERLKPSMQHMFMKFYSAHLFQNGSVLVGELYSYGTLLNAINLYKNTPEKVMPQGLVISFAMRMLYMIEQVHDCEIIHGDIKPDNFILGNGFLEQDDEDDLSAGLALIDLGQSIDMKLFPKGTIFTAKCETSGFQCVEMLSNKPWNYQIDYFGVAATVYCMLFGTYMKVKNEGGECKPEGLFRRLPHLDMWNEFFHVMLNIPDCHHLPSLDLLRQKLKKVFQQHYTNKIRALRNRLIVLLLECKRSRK

OCCOc1cc(F)c(Cn2nc(-c3nc(CN4CCOCC4)cc(Nc4ccncc4)n3)c3ccccc32)c(F)c1 [Example 2-6-38, 2-[3,5-difluoro-4-({3-[4-(morpholin-4-ylmethyl)-6-(pyridin-4-ylamino)pyrimidin-2-yl]-1H-indazol-1-yl}methyl)phenoxy]ethanol]
IC50 (Bub1): 2300 nM
IC50 [1]: 930 nM
IC50 [2, 3]: 10 nM
IC50 (HeLa; [4]): > 10000 nM

CCOc1cc(F)c(Cn2nc(-c3ncc(CC[S@](C)(=N)=O)c(Nc4ccncc4)n3)c3ccccc32)c(F)c1 [Example 2-7-1, 2-[1-(4-ethoxy-2,6-difluorobenzyl)-1H-indazol-3-yl]-5-[2-(S-methylsulfonimidoyl)ethyl]-N-(pyridin-4-yl)pyrimidin-4-amine]
IC50 (Bub1): 570 nM
IC50 [1]: 450 nM
IC50 [2, 5]: 6.3 nM
IC50 (HeLa; [4]): 3500 nM

CCOc1cc(F)c(Cn2nc(-c3ncc(CCN)c(Nc4ccncc4)n3)c3ccccc32)c(F)c1 [Example 2-9-2, 5-(2-aminoethyl)-2-[1-(4-ethoxy-2,6-difluorobenzyl)-1H-indazol-3-yl]-N-(pyridin-4-yl)pyrimidin-4-amine]
IC50 (Bub1): 1600 nM
IC50 [1]: 360 nM
IC50 [2, 3]: 8.8 nM
IC50 (HeLa; [4]): 1100 nM

CCOc1cc(F)c(Cn2nc(-c3ncc(C4CCNCC4)c(Nc4ccncc4)n3)c3ccccc32)c(F)c1 [Example 2-9-3, 2-[1-(4-ethoxy-2,6-difluorobenzyl)-1H-indazol-3-yl]-5-(piperidin-4-yl)-N-(pyridin-4-yl)pyrimidin-4-amine, salt with hydrochloric acid]
IC50 (Bub1): > 3000 nM and 4900 nM
IC50 [1]: 240 nM
IC50 [2, 5]: 5.8 nM
IC50 (HeLa; read-out: Biological Assay 2: Proliferation assay (HeLa cell line) median IC50, 4 days, crystal violet): 1100 nM

CCOc1cc(F)c(Cn2nc(-c3ncc(CC4CNC4)c(Nc4ccncc4)n3)c3ccccc32)c(F)c1 [Example 2-9-4, 5-(azetidin-3-ylmethyl)-2-[1-(4-ethoxy-2,6-difluorobenzyl)-1H-indazol-3-yl]-N-(pyridin-4-yl)pyrimidin-4-amine, salt with hydrochloric acid]
IC50 (Bub1): 440 nM
IC50 [1]: 420 nM
IC50 [2, 3]: 7.8 nM
IC50 (HeLa; [4]): 1900 nM

CCOc1cc(F)c(Cn2nc(-c3ncc(CN)c(Nc4ccncc4)n3)c3ccccc32)c(F)c1 [Example 2-9-5, 5-(aminomethyl)-2-[1-(4-ethoxy-2,6-difluorobenzyl)-1H-indazol-3-yl]-N-(pyridin-4-yl)pyrimidin-4-amine, salt with hydrochloric acid]
IC50 (Bub1): 1.8 nM
IC50 [1]: 340 nM
IC50 [2, 3]: 14 nM
IC50 (HeLa; [4]): 1800 nM

CCOc1cc(F)c(Cn2nc(-c3ncc(CN)c(Nc4ccnc(C(F)F)c4)n3)c3ccccc32)c(F)c1 [Example 2-9-6, 5-(aminomethyl)-N-[2-(difluoro-methyl)pyridin-4-yl]-2-[1-(4-ethoxy-2,6-difluorobenzyl)-1H-indazol-3-yl]pyrimidin-4-amine, salt with hydrochloric acid]
IC50 (Bub1): 2.9 nM
IC50 [1]: 260 nM
IC50 [2, 3]: 90 nM
IC50 (HeLa; [4]): 3700 nM

CCOc1cc(F)c(Cn2nc(-c3ncc(CC4CNC4)c(Nc4ccnc(NC(C)=O)c4)n3)c3ccccc32)c(F)c1 [Example 2-9-7, N-[4-({5-(azetidin-3-ylmethyl)-2-[1-(4-ethoxy-2,6-difluorobenzyl)-1H-indazol-3-yl]pyrimidin-4-yl}amino)pyridin-2-yl]acetamide, salt with hydrochloric acid]
IC50 (Bub1): 6.7 nM
IC50 [1]: 170 nM
IC50 [2, 5]: 7.4 nM
IC50 (HeLa; [4]): 10000 nM

CCOc1cc(F)c(Cn2nc(-c3ncc(CC4CNC4)c(Nc4ccnc(C(F)(F)F)c4)n3)c3ccccc32)c(F)c1 [Example 2-9-8]
IC50 (Bub1): 14 nM
IC50 [1]: 220 nM
IC50 [2, 3]: 440 nM
IC50 (HeLa; [4]): 1800 nM

CCOc1cc(F)c(Cn2nc(-c3ncc(CC4CNC4)c(Nc4ccnc(C(F)F)c4)n3)c3ccccc32)c(F)c1 [Example 2-9-9, 5-(azetidin-3-ylmethyl)-N-[2-(difluorometh-yl)pyridin-4-yl]-2-[1-(4-ethoxy-2,6-difluorobenzyl)-1H-indazol-3-yl]pyrimidin-4-amine, salt with hydrochloric acid]
IC50 (Bub1): 2.7 nM
IC50 [1]: 190 nM
IC50 [2, 3]: 52 nM
IC50 (HeLa; [4]): 2300 nM

CCOc1cc(F)c(Cn2nc(-c3ncc(CCN)c(Nc4ccnc(C(F)F)c4)n3)c3ccccc32)c(F)c1 [Example 2-9-10, 5-(2-aminoethyl)-N-[2-(difluorometh-yl)pyridin-4-yl]-2-[1-(4-ethoxy-2,6-difluorobenzyl)-1H-indazol-3-yl]pyrimidin-4-amine, salt with hydrochloric acid]
IC50 (Bub1): 1500 nM
IC50 [1]: 54 nM
IC50 [2, 3]: 7.1 nM
IC50 (HeLa; [4]): 1000 nM

CCOc1cc(F)c(Cn2nc(-c3ncc(CCN)c(Nc4ccnc(C(F)(F)F)c4)n3)c3ccccc32)c(F)c1 [Example 2-9-11, 5-(2-aminoethyl)-2-[1-(4-ethoxy-2,6-difluorobenzyl)-1H-indazol-3-yl]-N-[2-(trifluorometh-yl)pyridin-4-yl]pyrimidin-4-amine, salt with hydrochloric acid]
IC50 (Bub1): 2.8 nM
IC50 [1]: 110 nM
IC50 [2, 3]: 360 nM
IC50 (HeLa; [4]): 1100 nM

CCOc1cc(F)c(Cn2nc(-c3ncc(CCN)c(Nc4ccnc(NC(C)=O)c4)n3)c3ccccc32)c(F)c1 [Example 2-9-13, N-[4-({5-(2-aminoethyl)-2-[1-(4-ethoxy-2,6-difluorobenzyl)-1H-indazol-3-yl]pyrimidin-4-yl}amino)pyridin-2-yl]acetamide, salt with hydrochloric acid]
IC50 (Bub1): 160 nM
IC50 [1]: 150 nM
IC50 [2, 3]: 7.1 nM
IC50 (HeLa; [4]): 1000 nM

CCOc1cc(F)c(Cn2nc(-c3nc4c(c(Nc5ccncc5)n3)CNC4)c3ccccc32)c(F)c1 [Example 2-9-14, 2-[1-(4-ethoxy-2,6-difluorobenzyl)-1H-indazol-3-yl]-N-(pyridin-4-yl)-6,7-dihydro-5H-pyrrolo[3,4-d]pyrimidin-4-amine, salt with hydrochloric acid]
IC50 (Bub1): 11 nM
IC50 [1]: 170 nM
IC50 [2, 5]: 11 nM
IC50 (HeLa; [4]): 4300 nM

CCOc1cc(F)c(Cn2nc(-c3nc4c(c(Nc5ccnc(C(F)(F)F)c5)n3)CNC4)c3ccccc32)c(F)c1 [Example 2-9-15, 2-[1-(4-ethoxy-2,6-difluorobenzyl)-1H-indazol-3-yl]-N-[2-(trifluoro-methyl)pyridin-4-yl]-6,7-dihydro-5H-pyrrolo[3,4-d]pyrimidin-4-amine, salt with hydrochloric acid]
IC50 (Bub1): 2.8 nM
IC50 [1]: 340 nM
IC50 [2, 5]: 3300 nM
IC50 (HeLa; [4]): 4000 nM

CCOc1cc(F)c(Cn2nc(-c3ncc(CC(C)(C)N)c(Nc4ccncc4)n3)c3ccccc32)c(F)c1 [Example 2-9-18, 5-(2-amino-2-methylpropyl)-2-[1-(4-ethoxy-2,6-difluorobenzyl)-1H-indazol-3-yl]-N-(pyridin-4-yl)pyrimidin-4-amine, salt with hydrochloric acid]
IC50 (Bub1): 6.7 nM
IC50 [1]: 170 nM
IC50 [2, 3]: 15 nM
IC50 (HeLa; [4]): 5500 nM

CCOc1cc(F)c(Cn2nc(-c3ncc(CCCOC)c(Nc4ccncc4C(N)=O)n3)c3ccccc32)c(F)c1 [Example 2-10-1, 4-({2-[1-(4-ethoxy-2,6-difluorobenzyl)-1H-indazol-3-yl]-5-(3-methoxypropyl)pyrimidin-4-yl}amino)nicotinamide]
IC50 (Bub1): 3400 nM
IC50 [1]: 1300 nM
IC50 [2, 5]: 11 nM
IC50 (HeLa; [4]): > 10000 nM

CCOc1cc(F)c(Cn2nc(-c3ncc(CC4CN(CC(F)(F)F)C4)c(Nc4ccncc4)n3)c3ccccc32)c(F)c1 [Example 2-11-1, 2-[1-(4-ethoxy-2,6-difluorobenzyl)-1H-indazol-3-yl]-N-(pyridin-4-yl)-5-{[1-(2,2,2-trifluoroethyl)azetidin-3-yl]methyl}pyrimidin-4-amine]
IC50 (Bub1): 41 nM
IC50 [1]: 230 nM
IC50 [2, 5]: 62 nM
IC50 (HeLa; [4]): > 10000 nM

CCOc1cc(F)c(Cn2nc(-c3ncc4c(n3)N(c3ccncc3)C[C@H]4CNCC(F)(F)F)c3ccccc32)c(F)c1 [Example 2-11-3, N-({2-[1-(4-ethoxy-2,6-difluorobenzyl)-1H-indazol-3-yl]-7-(pyridin-4-yl)-6,7-dihydro-5H-pyrrolo[2,3d]pyr-imidin-5-yl}methyl)-2,2,2-trifluoroethanamine]
IC50 (Bub1): 93 nM
IC50 [1]: 100 nM
IC50 [2, 5]: 12 nM
IC50 (HeLa; [4]): 3000 nM

CCOc1cc(F)c(Cn2nc(-c3nc4c(c(Nc5ccncc5)n3)CCC4)c3ccccc32)c(F)c1 [Example 2-12-2, 2-[1-(4-ethoxy-2,6-difluorobenzyl)-1H-indazol-3-yl]-N-(pyridin-4-yl)-6,7-dihydro-5H-cyclopenta[d]pyrimidin-4-amine]
IC50 (Bub1): 180 nM
IC50 [1]: 390 nM
IC50 [2, 3]: 12 nM
IC50 (HeLa; [4]): 2100 nM

CCOc1cc(F)c(Cn2nc(-c3nc(Nc4ccncc4)cc(C(C)C)n3)c3ccccc32)c(F)c1 [Example 2-12-3, 2-[1-(4-ethoxy-2,6-difluorobenzyl)-1H-indazol-3-yl]-6-(propan-2-yl)-N-(pyridin-4-yl)pyrimidin-4-amine]
IC50 (Bub1): 34 nM
IC50 [1]: 1400 nM
IC50 [2, 5]: 17 nM
IC50 (HeLa; [4]): 4900 nM
